Test results as given in PMC9516332 (Frontiers in Oncology, 2022).
Where two headings read alike, the source gives them in different places.

Columns and labels:
[1] = system: 134 cancer cell lines; test: Cell viability assay (ATPlite, 72 hours), IC50 on cancer cell line panel
[2] = system: AP-1060 (ETV6-NTRK3); test: Cell viability assay; settings: read-out: IC50 in cell proliferation assay

Compound `CCN1C(=O)N(c2c(F)c(OC)cc(OC)c2F)Cc2cnc3[nH]c(CN4CCOCC4)cc3c21` [pemigatinib] has an IC50 ([1]; HEC-6, read-out: IC50 in cell proliferation assay) of 2490 nM, an IC50 ([1]; Homo sapiens, 769-P, read-out: IC50 in cell proliferation assay) of 2530 nM and an IC50 ([1]; Homo sapiens, 786-0, read-out: IC50 in cell proliferation assay) of 2710 nM. The IC50 ([1]; Homo sapiens, A 172, read-out: IC50 in cell proliferation assay) was 29 nM, the IC50 ([1]; Homo sapiens, A204, read-out: IC50 in cell proliferation assay) was 29 nM and the IC50 ([1]; Homo sapiens, A498, read-out: IC50 in cell proliferation assay) was 1130 nM. It also gave an IC50 ([1]; Homo sapiens, A549, read-out: IC50 in cell proliferation assay) of 4020 nM, an IC50 ([1]; Homo sapiens, A704, read-out: IC50 in cell proliferation assay) of 1280 nM and an IC50 ([1]; Homo sapiens, A-375, read-out: IC50 in cell proliferation assay) of 3030 nM. The IC50 ([1]; Homo sapiens, A-427, read-out: IC50 in cell proliferation assay) was 1.43 nM, the IC50 ([1]; Homo sapiens, ACHN, read-out: IC50 in cell proliferation assay) was 989 nM and the IC50 ([1]; Homo sapiens, AN3-CA, read-out: IC50 in cell proliferation assay) was 22 nM. The IC50 ([1]; Homo sapiens, ASPC1, read-out: IC50 in cell proliferation assay) was 3160 nM, the IC50 ([1]; Homo sapiens, AU565, read-out: IC50 in cell proliferation assay) was 3260 nM and the IC50 ([1]; Homo sapiens, BT-20, read-out: IC50 in cell proliferation assay) was 2840 nM. It also gave an IC50 ([1]; Homo sapiens, BT-474, read-out: IC50 in cell proliferation assay) of over 31600 nM, an IC50 ([1]; Homo sapiens, BT-549, read-out: IC50 in cell proliferation assay) of 17 nM and an IC50 ([1]; Homo sapiens, BXPC-3, read-out: IC50 in cell proliferation assay) of 1200 nM. For the same compound, the IC50 ([1]; Homo sapiens, C-33-A, read-out: IC50 in cell proliferation assay) was 2710 nM, the IC50 ([1]; Homo sapiens, CAL-27, read-out: IC50 in cell proliferation assay) was 2650 nM and the IC50 ([1]; Homo sapiens, CCF-STTG1, read-out: IC50 in cell proliferation assay) was over 31600 nM. The IC50 ([1]; Homo sapiens, CCRF-CEM, read-out: IC50 in cell proliferation assay) was 3600 nM, the IC50 ([1]; Homo sapiens, COLO 205, read-out: IC50 in cell proliferation assay) was 2980 nM and the IC50 ([1]; Homo sapiens, COLO-829, read-out: IC50 in cell proliferation assay) was 3230 nM. The IC50 ([1]; Homo sapiens, DLD-1, read-out: IC50 in cell proliferation assay) was 2270 nM, the IC50 ([1]; Homo sapiens, DU-145, read-out: IC50 in cell proliferation assay) was 1600 nM and the IC50 ([1]; Homo sapiens, DU-4475, read-out: IC50 in cell proliferation assay) was 5830 nM. For the same compound, the IC50 ([1]; Homo sapiens, Daoy, read-out: IC50 in cell proliferation assay) was 1400 nM, the IC50 ([1]; Homo sapiens, DoTc2-4510, read-out: IC50 in cell proliferation assay) was 3190 nM and the IC50 ([1]; Homo sapiens, EOL1, read-out: IC50 in cell proliferation assay) was 1110 nM. The IC50 ([1]; Homo sapiens, FaDu, read-out: IC50 in cell proliferation assay) was 2600 nM, the IC50 ([1]; Homo sapiens, G-361, read-out: IC50 in cell proliferation assay) was 2570 nM and the IC50 ([1]; Homo sapiens, HCC827, read-out: IC50 in cell proliferation assay) was 3200 nM. The IC50 ([1]; Homo sapiens, HCC4006, read-out: IC50 in cell proliferation assay) was 2620 nM, the IC50 ([1]; Homo sapiens, HCT-15, read-out: IC50 in cell proliferation assay) was 2820 nM and the IC50 ([1]; Homo sapiens, HCT-116, read-out: IC50 in cell proliferation assay) was 2400 nM. The IC50 ([1]; Homo sapiens, HEC-1, read-out: IC50 in cell proliferation assay) was 2370 nM, the IC50 ([1]; Homo sapiens, HEC-1B, read-out: IC50 in cell proliferation assay) was 2740 nM and the IC50 ([1]; Homo sapiens, HL-60, read-out: IC50 in cell proliferation assay) was 2450 nM. For the same compound, the IC50 ([1]; Homo sapiens, HT, read-out: IC50 in cell proliferation assay) was over 31600 nM, the IC50 ([1]; Homo sapiens, HT-1080, read-out: IC50 in cell proliferation assay) was 1060 nM and the IC50 ([1]; Homo sapiens, Hs746T, read-out: IC50 in cell proliferation assay) was 1840 nM. It also gave an IC50 ([1]; Homo sapiens, Hs-578T, read-out: IC50 in cell proliferation assay) of 3780 nM, an IC50 ([1]; Homo sapiens, HuTu80, read-out: IC50 in cell proliferation assay) of 3.58 nM and an IC50 ([1]; Homo sapiens, J82, read-out: IC50 in cell proliferation assay) of 1130 nM. The IC50 ([1]; Homo sapiens, Jurkat E6.1, read-out: IC50 in cell proliferation assay) was 2890 nM, the IC50 ([1]; Homo sapiens, K562, read-out: IC50 in cell proliferation assay) was 3770 nM and the IC50 ([1]; Homo sapiens, KATO III, read-out: IC50 in cell proliferation assay) was 1.77 nM. The IC50 ([1]; Homo sapiens, KG-1, read-out: IC50 in cell proliferation assay) was 1.08 nM, the IC50 ([1]; Homo sapiens, KLE, read-out: IC50 in cell proliferation assay) was 1820 nM and the IC50 ([1]; Homo sapiens, KMS-11, read-out: IC50 in cell proliferation assay) was 16 nM. It also gave an IC50 ([1]; Homo sapiens, KU812, read-out: IC50 in cell proliferation assay) of 4660 nM, an IC50 ([1]; Homo sapiens, Kasumi 1, read-out: IC50 in cell proliferation assay) of 1290 nM and an IC50 ([1]; Homo sapiens, LC-2-ad, read-out: IC50 in cell proliferation assay) of 3280 nM. It also gave an IC50 ([1]; Homo sapiens, LNCaP-Clone-FGC, read-out: IC50 in cell proliferation assay) of 3090 nM, an IC50 ([1]; Homo sapiens, LS174T, read-out: IC50 in cell proliferation assay) of 3690 nM and an IC50 ([1]; Homo sapiens, LS-411N, read-out: IC50 in cell proliferation assay) of 5900 nM. It also gave an IC50 ([1]; Homo sapiens, LoVo, read-out: IC50 in cell proliferation assay) of 2700 nM, an IC50 ([1]; Homo sapiens, MCF7, read-out: IC50 in cell proliferation assay) of over 31600 nM and an IC50 ([1]; Homo sapiens, MDA-MB-231, read-out: IC50 in cell proliferation assay) of 4510 nM. It also gave an IC50 ([1]; Homo sapiens, MDA-MB-453, read-out: IC50 in cell proliferation assay) of over 31600 nM, an IC50 ([1]; Homo sapiens, MDA-MB-468, read-out: IC50 in cell proliferation assay) of 729 nM and an IC50 ([1]; Homo sapiens, MG-63, read-out: IC50 in cell proliferation assay) of 11 nM. For the same compound, the IC50 ([1]; Homo sapiens, MIA PaCa-2, read-out: IC50 in cell proliferation assay) was 5730 nM, the IC50 ([1]; Homo sapiens, MKN-45, read-out: IC50 in cell proliferation assay) was 2320 nM and the IC50 ([1]; Homo sapiens, MOLM-13, read-out: IC50 in cell proliferation assay) was 3540 nM. It also gave an IC50 ([1]; Homo sapiens, MOLT-4, read-out: IC50 in cell proliferation assay) of 3590 nM, an IC50 ([1]; Homo sapiens, MV4-11, read-out: IC50 in cell proliferation assay) of 2490 nM and an IC50 ([1]; Homo sapiens, MeWo, read-out: IC50 in cell proliferation assay) of 2810 nM. For the same compound, the IC50 ([1]; Homo sapiens, NCCIT, read-out: IC50 in cell proliferation assay) was 22 nM, the IC50 ([1]; Homo sapiens, NCI-H82, read-out: IC50 in cell proliferation assay) was 1400 nM and the IC50 ([1]; Homo sapiens, NCI-H460, read-out: IC50 in cell proliferation assay) was 2750 nM. For the same compound, the IC50 ([1]; Homo sapiens, NCI-H661, read-out: IC50 in cell proliferation assay) was 2440 nM, the IC50 ([1]; Homo sapiens, NCI-H716, read-out: IC50 in cell proliferation assay) was 2.34 nM and the IC50 ([1]; Homo sapiens, NCI-H1650, read-out: IC50 in cell proliferation assay) was 3300 nM. The IC50 ([1]; Homo sapiens, NCI-H1975, read-out: IC50 in cell proliferation assay) was 2970 nM, the IC50 ([1]; Homo sapiens, NCI-H2228, read-out: IC50 in cell proliferation assay) was 2770 nM and the IC50 ([1]; Homo sapiens, OVCAR-3, read-out: IC50 in cell proliferation assay) was 3130 nM. The IC50 ([1]; Homo sapiens, PFSK-1, read-out: IC50 in cell proliferation assay) was 3860 nM, the IC50 ([1]; Homo sapiens, RL95-2, read-out: IC50 in cell proliferation assay) was 2380 nM and the IC50 ([1]; Homo sapiens, RPMI-7951, read-out: IC50 in cell proliferation assay) was 2980 nM. For the same compound, the IC50 ([1]; Homo sapiens, RS4-11, read-out: IC50 in cell proliferation assay) was 1330 nM, the IC50 ([1]; Homo sapiens, Rec1, read-out: IC50 in cell proliferation assay) was 3530 nM and the IC50 ([1]; Homo sapiens, SHP77, read-out: IC50 in cell proliferation assay) was over 31600 nM. The IC50 ([1]; Homo sapiens, SK-BR-3, read-out: IC50 in cell proliferation assay) was 835 nM, the IC50 ([1]; Homo sapiens, SK-N-AS, read-out: IC50 in cell proliferation assay) was 2830 nM and the IC50 ([1]; Homo sapiens, SK-N-FI, read-out: IC50 in cell proliferation assay) was 3040 nM. It also gave an IC50 ([1]; Homo sapiens, SK-N-MC, read-out: IC50 in cell proliferation assay) of 2600 nM, an IC50 ([1]; Homo sapiens, SK-N-SH, read-out: IC50 in cell proliferation assay) of 2230 nM and an IC50 ([1]; Homo sapiens, SNU-5, read-out: IC50 in cell proliferation assay) of 5260 nM. The IC50 ([1]; Homo sapiens, SNU-16, read-out: IC50 in cell proliferation assay) was 2 nM, the IC50 ([1]; Homo sapiens, SNU-C2B, read-out: IC50 in cell proliferation assay) was over 31600 nM and the IC50 ([1]; Homo sapiens, SU-DHL-1, read-out: IC50 in cell proliferation assay) was 2800 nM. The IC50 ([1]; Homo sapiens, SU-DHL-6, read-out: IC50 in cell proliferation assay) was 5120 nM, the IC50 ([1]; Homo sapiens, SUP-T1, read-out: IC50 in cell proliferation assay) was 4280 nM and the IC50 ([1]; Homo sapiens, SW48, read-out: IC50 in cell proliferation assay) was 8070 nM. For the same compound, the IC50 ([1]; Homo sapiens, SW480, read-out: IC50 in cell proliferation assay) was 2960 nM, the IC50 ([1]; Homo sapiens, SW626, read-out: IC50 in cell proliferation assay) was 3560 nM and the IC50 ([1]; Homo sapiens, SW780, read-out: IC50 in cell proliferation assay) was 8 nM. For the same compound, the IC50 ([1]; Homo sapiens, SW837, read-out: IC50 in cell proliferation assay) was 6230 nM, the IC50 ([1]; Homo sapiens, SW872, read-out: IC50 in cell proliferation assay) was 2500 nM and the IC50 ([1]; Homo sapiens, SW900, read-out: IC50 in cell proliferation assay) was 1920 nM. The IC50 ([1]; Homo sapiens, SW948, read-out: IC50 in cell proliferation assay) was 1930 nM, the IC50 ([1]; Homo sapiens, SW982, read-out: IC50 in cell proliferation assay) was 1280 nM and the IC50 ([1]; Homo sapiens, SW-620, read-out: IC50 in cell proliferation assay) was 3490 nM. It also gave an IC50 ([1]; Homo sapiens, T98G, read-out: IC50 in cell proliferation assay) of 3540 nM, an IC50 ([1]; Homo sapiens, TCC-SUP, read-out: IC50 in cell proliferation assay) of 606 nM and an IC50 ([1]; Homo sapiens, THP-1, read-out: IC50 in cell proliferation assay) of 4230 nM. For the same compound, the IC50 ([1]; Homo sapiens, U2OS, read-out: IC50 in cell proliferation assay) was 2950 nM, the IC50 ([1]; Homo sapiens, U-87 MG, read-out: IC50 in cell proliferation assay) was 3120 nM and the IC50 ([1]; Homo sapiens, U-118-MG, read-out: IC50 in cell proliferation assay) was 4090 nM. For the same compound, the IC50 ([1]; Homo sapiens, UMUC3, read-out: IC50 in cell proliferation assay) was 1600 nM, the IC50 ([1]; Hs766T, read-out: IC50 in cell proliferation assay) was 5660 nM and the IC50 ([1]; L-82, read-out: IC50 in cell proliferation assay) was 4100 nM. The IC50 ([1]; Rh30, read-out: IC50 in cell proliferation assay) was 137 nM and the IC50 [2] was 3420 nM.
